Test results: patent publication US7348315B2, “Methods of treating heart failure with modified ATP, ADP and AMP compounds” (priority 1995, dated 2008)

Experiments:
[1] = test system: cardiac ventricular myocytes; assay: Contractile amplitude of cultured cardiac ventricular myocytes (optico-video motion detection); assay type: cell-based, chick; conditions: for ability to stimulate an increase in contractile amplitude: FIGS. 1a-1d; for desensitization of the positive inotropic response to ATP, ADPβS and UTP after pre-exposure: pre-exposure 100 μM, 60 minutes (2-methylthio ATP) or three hours (UTP); for maximal % increase in contractile amplitude: ventricular myocytes (chick embryo 14 days in ovo / adult rat), mean ± SE
Text: […] Sen, L., Liang, B. T., Colucci, W. S., Smith, T. W., Circ. Res. 67:1182-1192 (1990), modified to include the use of a high-speed peristaltic pump (Masterflex from Cole-Palmer/Spectrum), choice of lots of collagenase, hyaluronidase and protease that give the highest proportion of rod-shaped myocytes, inclusion of bovine serum albumin containing various enzymes, and pre-plating with laminin-coated plates or glass coverslips (for contractility measurement) to eliminate damaged, rounded up myocytes. Specifically, hearts from Sprague-Dawley rats were perfused in a retrograde manner for 5 minutes in Krebs-Henseleit (KH) bicarbonate buffer containing 118 mM NaCl, 4.6 mM KCl, 1.2 mM MgSO4, 1.25 mM CaCl2, 1.2 mM KH2PO4, 25 mM NaHCO3, and 11 mM glucose, gassed with 95% O2/5% CO2/at pH 7.4 (37° C., and an osmolality of 287 mosm/liter). The perfusion buffer was changed to nominally Ca^2+-free KH buffer for 5 min to arrest spontaneous beating. The heart was then perfused with the Ca^2+-free KH buffer containing 0.05% collagenase (Worthington) and 0.03% hyaluronidase (Sigma Chem. Co., St. Louis, Mo.) for 20 min. After removing the atria and the great vessels, the ventricular tissue was finely minced in the same collagenase/hyaluronidase buffer described above except that trypsin (0.02 mg/ml, Sigma) and deoxyribonuclease (0.02 mg/ml, Sigma) was also added. The minced tissue was further incubated in this buffer at 37° C. with shaking to facilitate dissociation of individual ventricular myocytes. The dissociated cells containing some damaged cells were filtered and layered twice over a 6% bovine serum albumin gradient. The rod-shaped healthy heart cells sedimented more easily than the round damaged cells. After the second sedimentation through the 6% BSA gradient, the final pellet contains more than 90% rod-shaped heart cells.
Ventricular myocytes were cultured from chick embryos 14 days in ovo according to known procedures. Briefly, isolated ventricular myocytes from chick embryos 14 in ovo were prepared in calcium- and magnesium-free Hanks' balanced salt sodium (HBSS) containing 0.025% trypsin (GIBCO, Grand Island, N.Y.). After neutralization of trypsin medium containing horse serum and HBSS, cells were centrifuged and resuspended in culture medium containing 6% fetal bovine serum, 40% Medium 199 (GIBCO), 0.1% penicillin/streptomycin, and a salt solution. The final concentrations in the culture medium (in mmol/L) were Na 142, K 3.3, Mg 0.7, Ca 1.4, Cl 130, HCO3 16.4, and glucose 5.5. Cells were plated at a density of 400,000 cell per ml and cultivated in a humidified 5% CO2-95% […]
The cell isolation procedure was generally that of Kelly, R. A., Eid, H., Kramer, B. K., O'Neill, M., Liang, B. T., Reers, M., Smith, T. W., J. Clin. Invest. 86:1164-1171 (1990), […] Cells became confluent on day 3 in culture and contractility measurement was carried out on that day.
Measurement of contractile amplitude in cultured ventricular cells was carried out generally according to the methods of Xu, D., Kong, H., Liang, B. T., Circ. Res. 70:56-65 (1992), and Barry, W. H., and Smith, T. W., J. Physiol. (Lond) 325:243-260 (1982). […]

[2] = test system: working rat heart; assay: Intact working rat heart; conditions: FIG. 11
Procedure: For the working heart model, a column of KHS buffer produced a constant hydrostatic pressure of 65 mmHg (for rat) or 55 mmHg (for mice). The opening of the pulmonary vein was connected via a PE-90 (for rat) or PE-50 (for mice) catheter to a reservoir of KHS buffer that maintained a “venous return” flow into the left atrium of about 12 mL/min (rat) or 5 mL/min (mice) under the resting condition. The venous return was maintained by a constant level of hydrostatic pressure (7-8 mm Hg) yielding a steady rate of venous return. The entering KHS buffer was then switched from retrograde to antegrade perfusion and produced a work-performing heart preparation. […] Aortic flow was the amount of perfusate exiting the aortic cannula measured in […]. […]
The pressure recordings were channeled from amplifiers which had been precalibrated by a transducer simulator/calibrator (Ken Scientific Corp., Litchfield, Conn.). […] Data were analyzed by computer software (WorkBench for Windows+, Kent Scientific Corp.) designed for an IBM-compatible computer (Dell). […] Data points under each basal condition and during infusion of each drug concentration were summarized as means±SE, and the statistical differences were analyzed by one-way ANOVA with post-test comparison and t test.

[3] = test system: isolated mouse heart; assay: Work-performing isolated mouse heart; conditions: 100 nM, vs basal; for increase in +dP/dt (cardiac muscle contractility) / increase in cardiac output (C.O.) / increase in −dP/dt (diastolic relaxation): P less than 0.05, paired t test
Procedure: perfusion in the isolated heart was carried out using the work-performing model described as follows: For the working heart model, a column of KHS buffer produced a constant hydrostatic pressure of 65 mmHg (for rat) or 55 mmHg (for mice). The opening of the pulmonary vein was connected via a PE-90 (for rat) or PE-50 (for mice) catheter to a reservoir of KHS buffer that maintained a “venous return” flow into the left atrium of about 12 mL/min (rat) or 5 mL/min (mice) under the resting condition. The venous return was maintained by a constant level of hydrostatic pressure (7-8 mm Hg) yielding a steady rate of venous return. The entering KHS buffer was then switched from retrograde to antegrade perfusion and produced a work-performing heart preparation. The perfusate exited the left ventricle through the aorta cannula, which was connected to the aortic column of KHS buffer with a hydrostatic pressure of 55 mmHg (for mice) or 65 mmHg (for rat). Aortic flow was the amount of perfusate exiting the aortic cannula measured in millimeters per minute. Coronary flow, in millimeters per minute, was collected via opening of the pulmonary artery. The sum of aortic flow and coronary flow was the cardiac output. A 23 gauge catheter was inserted into the left ventricle and its distal end is connected to a pressure transducer to record left ventricular pressures and ±dP/dt. The left ventricular developed pressure (LVDP) was the difference between LV systolic and diastolic pressure. A side port of the reservoir allowed direct infusion of beta-adrenergic agonist isoproterenol or P2X receptor agonist 2-[…] into the KHS buffer that entered the left ventricle via the left atrium, which then entered the coronary circulation following ejection of drug-containing perfusate into the aorta. The pressure recordings were channeled from amplifiers which had been precalibrated by a transducer simulator/calibrator (Ken Scientific Corp., Litchfield, Conn.). The signals were then digitized via a PCM-DAS 16S/330 interface board (Computer Boards, Inc. Mansfield, Mass.) which provided a high level of performance with analog input channels and digital channels. Data were analyzed by computer software (WorkBench for Windows+, Kent Scientific Corp.) designed for an IBM-compatible computer (Dell). […] Data acquisition, signal display (LV pressures, ±dP/dt, heart rate), and data analysis programs were run concurrently from the hard drive of the computer. Data points under each basal condition and during infusion of each drug concentration were summarized as means±SE, and the statistical differences were analyzed by one-way ANOVA with post-test comparison and […] and ISO (isoproterenol) were present at 100 nM. Basal represented the baseline values obtained before infusion with the agonists. Date were the means and standard errors of those obtained in 5 rats.

CSc1nc(N)c2ncn([C@@H]3O[C@H](COP(=O)(O)OP(=O)(O)O)[C@@H](O)[C@H]3O)c2n1 [2-methylthio ADP]
effect on basal contractile amplitude (positive inotropic effect) ([1]; myocytes paced at 2 HZ, FIG. 7): pronounced positive inotropic effect

CSc1nc(N)c2ncn([C@@H]3O[C@H](COP(=O)(O)OP(=O)(O)OP(=O)(O)O)[C@@H](O)[C@H]3O)c2n1 [2-methylthio ATP]
ability to stimulate an increase in contractile amplitude [1]: capable of stimulating an increase in contractile amplitude
desensitization of the positive inotropic response to ATP, ADPβS and UTP after pre-exposure [1]: desensitized the positive inotropic response
maximal % increase in contractile amplitude [1]: 54±7%
+dP/dt (index of muscle contractility) [2]: increases
−dP/dt (index of diastolic relaxation) [2]: increases
heart rate (H.R.) [3]: did not change the heart rate
increase in +dP/dt (cardiac muscle contractility) [3]: statistically significant
increase in cardiac output (C.O.) [3]: statistically significant
increase in −dP/dt (diastolic relaxation) [3]: statistically significant

Nc1ncnc2c1ncn2[C@@H]1O[C@H](COP(=O)(O)OP(=O)(O)O)[C@@H](O)[C@H]1O [ADP]
maximal % increase in contractile amplitude [1]: 47.7±10%

Nc1ncnc2c1ncn2[C@@H]1O[C@H](COP(=O)(O)OP(O)(O)=S)[C@@H](O)[C@H]1O [ADPβS]
maximal % increase in contractile amplitude [1]: 76±15%

Nc1ncnc2c1ncn2[C@@H]1O[C@H](COP(=O)(O)O)[C@@H](O)[C@H]1O [AMP]
maximal % increase in contractile amplitude [1]: 9.6±4%

Nc1ncnc2c1ncn2[C@@H]1O[C@H](COP(=O)(O)OP(=O)(O)OP(=O)(O)O)[C@@H](O)[C@H]1O [ATP]
maximal % increase in contractile amplitude [1]: 89.7±9%

Nc1ncnc2c1ncn2[C@@H]1O[C@H](COP(=O)(O)OP(=O)(O)NP(=O)(O)O)[C@@H](O)[C@H]1O [App(NH)p, adenylyl imidodiphospate]
effect on contractile amplitude in presence of adenosine receptor antagonist 8-SPT ([1]; App(NH)p plus 8-sulfophenyltheophylline, FIG. 8): not mediated via the adenosine receptor
effect on basal contractile amplitude (positive inotropic effect) ([1]; FIG. 8): pronounced positive inotropic effect

O=c1ccn([C@@H]2O[C@H](COP(=O)(O)OP(=O)(O)OP(=O)(O)O)[C@@H](O)[C@H]2O)c(=O)[nH]1 [UTP]
ability to stimulate an increase in contractile amplitude [1]: not capable of producing the same effect
desensitization of the positive inotropic response to ATP, ADPβS and UTP after pre-exposure [1]: failed to cause such desensitization
maximal % increase in contractile amplitude [1]: 22±4%

Nc1ncnc2c1ncn2[C@@H]1O[C@H](COP(N)(=O)O)[C@@H](O)[C@H]1O [adenosine 5′monophosphoramidate]
effect on basal contractile amplitude (positive inotropic effect) ([1]; myocytes paced at 2 HZ, FIG. 7): pronounced positive inotropic effect

Nc1ncnc2c1ncn2[C@@H]1O[C@H](CO)[C@@H](O)[C@H]1O [adenosine]
maximal % increase in contractile amplitude [1]: 15±4%

CC(C)NCC(O)c1ccc(O)c(O)c1 (stereo not shown) [isoproterenol]
heart rate (H.R.) [3]: significant stimulation
increase in +dP/dt (cardiac muscle contractility) [3]: statistically significant
increase in cardiac output (C.O.) [3]: statistically significant
increase in −dP/dt (diastolic relaxation) [3]: statistically significant

Nc1ncnc2c1ncn2[C@@H]1O[C@H](COP(=O)(O)CP(=O)(O)OP(=O)(O)O)[C@@H](O)[C@H]1O [α,β-methylene ATP]
ability to stimulate an increase in contractile amplitude [1]: not capable of producing the same effect
maximal % increase in contractile amplitude [1]: −13±5%

adenylyl 5′phosphoramidate
effect on basal contractile amplitude (positive inotropic effect) ([1]; myocytes paced at 2 HZ, FIG. 7): pronounced positive inotropic effect
